Experimental data: patent publication US12383631B2, “Immune antigen specific IL-18 immunocytokines and uses thereof” (Bright Peak Therapeutics AG, priority 2022, dated 2025)

How the values were obtained:
[1] = system: parental PD-1 negative KG-1 cells; experiment: IFN gamma secretion assay in parental PD-1 negative KG-1 cells (Example 11); assay type: cell-based, human; conditions: IFNγ secretion, 20-24 h
Protocol: (§1) The KG-1 cell line was used to generate a PD-1 expressing cell line and furthermore, to measure IFNγ release upon incubation with TL-18 variants and corresponding TL-18 immunocytokines.
(§2) IFNγ release was assessed in PD-1 positive (transduced) KG-1 cells, as well as in the parental PD-1 negative cells. 0.5×10^5 cells were seeded into a 96-well U-bottom plate in culture media (RPMI, 10% FBS, […]) and stimulated with IL-18 variants/ICs for 20-24 h. The test items were diluted to 100 nM in culture medium, followed by 7 10-fold serial dilutions. The lowest concentration assessed was […]. After incubation, IFNγ release was measured using the LEGENDplex custom human mix and match KIT (Biolegend LEGENDplex™ Human IFN-γ Capture Bead B5, 13×#740942, LEGENDplex™ P 1 Essential Immune Response Panel Detection Abs, #740931, LEGENDplex™ Buffer Set A #740368). To this end, cell culture supernatant was collected and diluted 1:1 with Assay Buffer. Fluorescence measurements were done with a Quanteon Flow Cytometer from Acea Biosciences. For analysis, MFI values (median fluorescence intensity) were exported and plotted against concentrations used. The EC50 values (half maximal effective concentration) were calculated based on a variable slope and four parameter analysis using GraphPad PRISM software version 9.

[2] = system: PD-1 positive (transduced) KG-1 cells; experiment: IFN gamma secretion assay in PD-1 transduced KG-1 cells (Example 11); assay type: cell-based, human; conditions: IFNγ secretion, PD-1 transduced KG-1 cells, 20-24 h
Protocol: as §1
PD-1 expressing cell line generation: Briefly, KG-1 cells were transduced using lentiviral particles carrying the human PD-1 gene (PDCD1 NM_005018; Origene, CAT #: RC210364L3V) at a MOI (Multiplicity of Infection) of 30. Spinfection was performed at 1260 g during 90 min at 37° C. in the presence of 5 μg/ml of Polybrene and 10 mM of HEPES in complete culture media (RPMI, 10% FBS, 1% L-Glutamine). Five days after transduction, puromycin at a final concentration of 1 μg/ml was added to select for PD-1 positive cells. For culture maintenance, puromycin concentration was decreased to 0.5 μg/ml. Stable and homogenous expression of PD-1 was verified by surface staining (BD Pharmingen, #557860).
as §2

[3] = biological target: T1, human IL-18 binding protein isoform a (IL-18BPa) (Homo sapiens, UniProt O95998); experiment: Cellular IL-18 Binding protein resistance assay in NK-92 cells (Example 13); assay type: cell-based; conditions: NK92 cells, IL-18 analyte 1 nM final, IL-18BPa titrated, 1 ng/ml IL-12; read-out: IC50 IL-18BP-mediated inhibition of IFNγ secretion
T1 sequence (O95998 31-194): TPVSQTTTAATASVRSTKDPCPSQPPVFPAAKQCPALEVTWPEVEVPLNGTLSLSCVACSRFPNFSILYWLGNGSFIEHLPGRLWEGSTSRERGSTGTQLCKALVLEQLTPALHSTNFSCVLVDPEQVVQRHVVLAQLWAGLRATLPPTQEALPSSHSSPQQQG
Protocol: The NK cell line NK-92 derived from a patient with lymphoma (ATCC, Cat #CRL-2407) was cultured in aMEM medium supplemented with 20% FCS-Glutamax, 25 μM B-mercaptoEthanol, and 100 IU/ml of recombinant Human Interleukin-2 (TL-2). On the day of experiment, cells were harvested and washed with aMEM medium without IL-2. After counting, cells were seeded at 100 000 cells/well in a 384 well titer plate and incubated at 37° C./5% CO2. Sixteen 2-fold serial dilutions of Fc fused human IL-18 binding protein isoform a (IL-18BPa; R&D systems, Cat #119-BP) were prepared in aMEM medium-1 ng/ml IL-12 containing 2 nM of each IL-18 variants and were added to the NK-92 cells. Final IL-18 analytes concentration was 1 nM and final IL-18BPa concentrations ranged from to 566 nM down to 17 pM.
After 16-20 h incubation at 37° C./5% CO2, 5 μl of supernatant were carefully transferred to a 384 microwells OPTIplate (Perkin Elmer; Cat #6007270) and Interferon-gamma (IFNγ) levels measured using the Human IFNγ AlphaLISA Assay Kit (Perkin Elmer, Cat #AL217C). Briefly, 10 μl of 2.5× AlphaLISA Anti-IFNγ acceptor beads and biotinylated Antibody Anti-IFNγ mix were added to the 5 μl of NK-92 supernatants and incubated for 1 h at room temperature under shaking. Under subdued light, 2.5 μl of 2× streptavidin (SA) donor beads were pipetted in each well and incubated for 30 min at room temperature under shaking. AlphaLisa signal was then measured on an Enspire plate reader (Perkin Elmer) using 680 and 615 nm as excitation and emission wavelengths respectively. Half maximal inhibitory concentration (IC50) was calculated based on a variable slope, four parameter analysis using GraphPad PRISM software.

EC50 [2]: 3.6 pM
IC50 [3]: > 1000 nM
Substance: Composition B: immunocytokine: Atezolizumab/Tecentriq (anti-PD-L1) conjugated to IL-18 polypeptide SEQ ID NO: 30
EC50 [1]: 1.6 pM
